Measurements from ChEMBL document CHEMBL1130443, “Enhanced DNA photocleavage and binding properties of sapphyrin-polyamine conjugates” (Bioorg Med Chem Lett, 1997).

Key:
Type in all cases: nucleic-acid assay
[1] = system: Nucleic Acid; test: Compound was measured for the inhibition of DNA cleavage against […] plasmid in the presence of 0.2 M sodium dodecyl sulfate(SDS).
[2] = system: Nucleic Acid; test: The C50 value refers to the concentration of compound required to displace 50% of the ethidium bromide from the DNA.; details: Bos taurus
[3] = system: Nucleic Acid; test: Compound was measured for the inhibition of DNA cleavage against […] plasmid in the presence of 2M NaCl.
[4] = system: Nucleic Acid; test: Compound was measured for the inhibition of DNA cleavage against […] plasmid in the presence of 0.2 M sodium dodecyl sulfate (SDS).

Row | Structure (SMILES) | inhibition [1] | C50 [2] | inhibition [3] | inhibition [4]
1 | NCCN(CCN)CCN | – | 28 µM | – | –
2 | CCc1c(CC)c2cc3nc(cc4[nH]c(c(C)c4CC)c4[nH]c(cc5nc(cc1[nH]2)C(CCC(=O)NCCNCCN)=C5C)c(CC)c4C)C(C)=C3CCC(=O)NCCNCCN | 47% | 0.127 µM | 87% | –
3 | CCc1c(CC)c2cc3nc(cc4[nH]c(c(C)c4CC)c4[nH]c(cc5nc(cc1[nH]2)C(CCC(=O)N(CCO)CCO)=C5C)c(CC)c4C)C(C)=C3CCC(=O)N(CCO)CCO | – | 1.2 µM | 92% | 100%

Next, values leading:

Row | inhibition [1] | C50 [2] | inhibition [3] | inhibition [4] | Structure (SMILES)
4 | 31% | 0.062 µM | 66% | – | CCC1=C(CC)c2cc3[nH]c(cc4[nH]c(c(C)c4CC)c4[nH]c(cc5nc(cc1n2)C(CCC(=O)NCCOCCOCCN)=C5C)c(CC)c4C)c(C)c3CCC(=O)NCCOCCOCCN
5 | 41% | 0.114 µM | 93% | – | CCc1c(CC)c2cc3nc(cc4[nH]c(c(C)c4CC)c4[nH]c(cc5nc(cc1[nH]2)C(CCC(=O)NCCN(CCN)CCN)=C5C)c(CC)c4C)C(C)=C3CCC(=O)NCCN(CCN)CCN
